According to ChEMBL document CHEMBL3390848, “Affinity selection and sequence-activity relationships of HIV-1 membrane fusion inhibitors directed at the drug-resistant variants” (Medchemcomm, 2010):
Residues, ends and D or L forms follow the SMILES beside them.

Experiments:
[1] = tested on: Human immunodeficiency virus 1; experiment: Binding affinity to HIV1 His-tagged N-terminal heptad repeat of envelope glycoprotein gp41 assessed as recovery of N54-drug complex after 2 hrs by LC-MS analysis; design: concentration or dose not given beside the values
[2] = tested on: Human immunodeficiency virus 1; experiment: Antiviral activity against HIV1 NL4-3 harboring gp41 D36G mutant infected in human HeLa cells expressing CD4-LTR-beta-gal assessed as inhibition of viral replication after 48 hrs by MAGI assay; format: functional, organism-based
[3] = tested on: Human immunodeficiency virus 1; experiment: Thermal stability of HIV1 envelope glycoprotein gp41 His-tagged N-terminal heptad repeat N54-drug complex assessed as thermal unfolding transition state by measuring molar ellipticity at 4 to 90 degC by circular dichroic spectra analysis

CC[C@H](C)[C@H](NC(=O)[C@H](CC(C)C)NC(=O)[C@H](CCC(=O)O)NC(=O)[C@H](CCC(=O)O)NC(=O)[C@@H](NC(=O)[C@H](CC(C)C)NC(=O)[C@H](CO)NC(=O)[C@@H](NC(=O)[C@H](Cc1ccc(O)cc1)NC(C)=O)[C@@H](C)O)[C@@H](C)CC)C(=O)N[C@@H](CCCCN)C(=O)N[C@@H](CCCCN)C(=O)N[C@@H](CO)C(=O)N[C@@H](CCC(=O)O)C(=O)N[C@@H](CCC(=O)O)C(=O)NCC(=O)N[C@@H](CCC(N)=O)C(=O)N[C@@H](CCCCN)C(=O)N[C@@H](CCCCN)C(=O)N[C@@H](CC(N)=O)C(=O)N[C@@H](CCC(=O)O)C(=O)N[C@@H](CCC(=O)O)C(=O)N[C@@H](CCC(=O)O)C(=O)N[C@@H](CC(C)C)C(=O)N[C@@H](CCCCN)C(=O)N[C@@H](CCCCN)C(=O)N[C@@H](CC(C)C)C(=O)N[C@@H](CCC(=O)O)C(=O)N[C@@H](CCC(=O)O)C(=O)N[C@@H](Cc1c[nH]c2ccccc12)C(=O)N[C@@H](C)C(=O)N[C@@H](CCCCN)C(=O)N[C@@H](CCCCN)C(=O)N[C@@H](Cc1c[nH]c2ccccc12)C(=O)N[C@@H](CC(N)=O)C(=O)N[C@@H](Cc1c[nH]c2ccccc12)C(=O)N[C@@H](Cc1ccccc1)C(N)=O (Ac-YTSLIEELIKKSEEGQKKNEEELKKLEEWAKKWNWF-NH2)
Activity [1]: 3.4%
EC50 [2]: 3 nM
Tm [3]: 66.2 °C

CC[C@H](C)[C@H](NC(=O)[C@H](CC(C)C)NC(=O)[C@H](CCC(=O)O)NC(=O)[C@H](CCC(=O)O)NC(=O)[C@@H](NC(=O)[C@H](CC(C)C)NC(=O)[C@H](CO)NC(=O)[C@@H](NC(=O)[C@H](Cc1ccc(O)cc1)NC(C)=O)[C@@H](C)O)[C@@H](C)CC)C(=O)N[C@@H](CCCCN)C(=O)N[C@@H](CCCCN)C(=O)N[C@@H](CO)C(=O)N[C@@H](CCC(=O)O)C(=O)N[C@@H](CCC(=O)O)C(=O)N[C@@H](Cc1cnc[nH]1)C(=O)N[C@@H](CCC(N)=O)C(=O)N[C@@H](CCCCN)C(=O)N[C@@H](CCCCN)C(=O)N[C@@H](CC(N)=O)C(=O)N[C@@H](CCC(=O)O)C(=O)N[C@@H](CCC(=O)O)C(=O)N[C@@H](CCC(=O)O)C(=O)N[C@@H](CC(C)C)C(=O)N[C@@H](CCCCN)C(=O)N[C@@H](CCCCN)C(=O)N[C@@H](CC(C)C)C(=O)N[C@@H](CCC(=O)O)C(=O)N[C@@H](CCC(=O)O)C(=O)N[C@@H](Cc1c[nH]c2ccccc12)C(=O)N[C@@H](C)C(=O)N[C@@H](CCCCN)C(=O)N[C@@H](CCCCN)C(=O)N[C@@H](Cc1c[nH]c2ccccc12)C(=O)N[C@@H](CC(N)=O)C(=O)N[C@@H](Cc1c[nH]c2ccccc12)C(=O)N[C@@H](Cc1ccccc1)C(N)=O (Ac-YTSLIEELIKKSEEHQKKNEEELKKLEEWAKKWNWF-NH2)
Activity [1]: 3.7%
EC50 [2]: 3 nM
Tm [3]: 68.4 °C

CC[C@H](C)[C@H](NC(=O)[C@H](CC(C)C)NC(=O)[C@H](CCC(=O)O)NC(=O)[C@H](CCC(=O)O)NC(=O)[C@@H](NC(=O)[C@H](CC(C)C)NC(=O)[C@H](CO)NC(=O)[C@@H](NC(=O)[C@H](Cc1ccc(O)cc1)NC(C)=O)[C@@H](C)O)[C@@H](C)CC)C(=O)N[C@@H](CCCCN)C(=O)N[C@@H](CCCCN)C(=O)N[C@@H](CO)C(=O)N[C@@H](CCC(=O)O)C(=O)N[C@@H](CCC(=O)O)C(=O)N[C@@H](CCCNC(=N)N)C(=O)N[C@@H](CCC(N)=O)C(=O)N[C@@H](CCCCN)C(=O)N[C@@H](CCCCN)C(=O)N[C@@H](CC(N)=O)C(=O)N[C@@H](CCC(=O)O)C(=O)N[C@@H](CCC(=O)O)C(=O)N[C@@H](CCC(=O)O)C(=O)N[C@@H](CC(C)C)C(=O)N[C@@H](CCCCN)C(=O)N[C@@H](CCCCN)C(=O)N[C@@H](CC(C)C)C(=O)N[C@@H](CCC(=O)O)C(=O)N[C@@H](CCC(=O)O)C(=O)N[C@@H](Cc1c[nH]c2ccccc12)C(=O)N[C@@H](C)C(=O)N[C@@H](CCCCN)C(=O)N[C@@H](CCCCN)C(=O)N[C@@H](Cc1c[nH]c2ccccc12)C(=O)N[C@@H](CC(N)=O)C(=O)N[C@@H](Cc1c[nH]c2ccccc12)C(=O)N[C@@H](Cc1ccccc1)C(N)=O (Ac-YTSLIEELIKKSEERQKKNEEELKKLEEWAKKWNWF-NH2)
Activity [1]: 7.2%
EC50 [2]: 1.5 nM
Tm [3]: 68.9 °C

CC[C@H](C)[C@H](NC(=O)[C@H](CC(C)C)NC(=O)[C@H](CCC(=O)O)NC(=O)[C@H](CCC(=O)O)NC(=O)[C@@H](NC(=O)[C@H](CC(C)C)NC(=O)[C@H](CO)NC(=O)[C@@H](NC(=O)[C@H](Cc1ccc(O)cc1)NC(C)=O)[C@@H](C)O)[C@@H](C)CC)C(=O)N[C@@H](CCCCN)C(=O)N[C@@H](CCCCN)C(=O)N[C@@H](CO)C(=O)N[C@@H](CCC(=O)O)C(=O)N[C@@H](CCC(=O)O)C(=O)N[C@H](C(=O)N[C@@H](CCC(N)=O)C(=O)N[C@@H](CCCCN)C(=O)N[C@@H](CCCCN)C(=O)N[C@@H](CC(N)=O)C(=O)N[C@@H](CCC(=O)O)C(=O)N[C@@H](CCC(=O)O)C(=O)N[C@@H](CCC(=O)O)C(=O)N[C@@H](CC(C)C)C(=O)N[C@@H](CCCCN)C(=O)N[C@@H](CCCCN)C(=O)N[C@@H](CC(C)C)C(=O)N[C@@H](CCC(=O)O)C(=O)N[C@@H](CCC(=O)O)C(=O)N[C@@H](Cc1c[nH]c2ccccc12)C(=O)N[C@@H](C)C(=O)N[C@@H](CCCCN)C(=O)N[C@@H](CCCCN)C(=O)N[C@@H](Cc1c[nH]c2ccccc12)C(=O)N[C@@H](CC(N)=O)C(=O)N[C@@H](Cc1c[nH]c2ccccc12)C(=O)N[C@@H](Cc1ccccc1)C(N)=O)[C@@H](C)O (Ac-YTSLIEELIKKSEETQKKNEEELKKLEEWAKKWNWF-NH2)
Activity [1]: 6.9%
EC50 [2]: 2.1 nM
Tm [3]: 71.6 °C

CC[C@H](C)[C@H](NC(=O)[C@H](CC(C)C)NC(=O)[C@H](CCC(=O)O)NC(=O)[C@H](CCC(=O)O)NC(=O)[C@@H](NC(=O)[C@H](CC(C)C)NC(=O)[C@H](CO)NC(=O)[C@@H](NC(=O)[C@H](Cc1ccc(O)cc1)NC(C)=O)[C@@H](C)O)[C@@H](C)CC)C(=O)N[C@@H](CCCCN)C(=O)N[C@@H](CCCCN)C(=O)N[C@@H](Cc1ccccc1)C(=O)N[C@@H](CCC(=O)O)C(=O)N[C@@H](CCC(=O)O)C(=O)N[C@@H](CCC(N)=O)C(=O)N[C@@H](CCC(N)=O)C(=O)N[C@@H](CCCCN)C(=O)N[C@@H](CCCCN)C(=O)N[C@@H](CC(N)=O)C(=O)N[C@@H](CCC(=O)O)C(=O)N[C@@H](CCC(=O)O)C(=O)N[C@@H](CCC(=O)O)C(=O)N[C@@H](CC(C)C)C(=O)N[C@@H](CCCCN)C(=O)N[C@@H](CCCCN)C(=O)N[C@@H](CC(C)C)C(=O)N[C@@H](CCC(=O)O)C(=O)N[C@@H](CCC(=O)O)C(=O)N[C@@H](Cc1c[nH]c2ccccc12)C(=O)N[C@@H](C)C(=O)N[C@@H](CCCCN)C(=O)N[C@@H](CCCCN)C(=O)N[C@@H](Cc1c[nH]c2ccccc12)C(=O)N[C@@H](CC(N)=O)C(=O)N[C@@H](Cc1c[nH]c2ccccc12)C(=O)N[C@@H](Cc1ccccc1)C(N)=O (Ac-YTSLIEELIKKFEEQQKKNEEELKKLEEWAKKWNWF-NH2)
Activity [1]: 5.8%
EC50 [2]: 2.8 nM
Tm [3]: 64.6 °C

CC[C@H](C)[C@H](NC(=O)[C@H](CC(C)C)NC(=O)[C@H](CCC(=O)O)NC(=O)[C@H](CCC(=O)O)NC(=O)[C@@H](NC(=O)[C@H](CC(C)C)NC(=O)[C@H](CO)NC(=O)[C@@H](NC(=O)[C@H](Cc1ccc(O)cc1)NC(C)=O)[C@@H](C)O)[C@@H](C)CC)C(=O)N[C@@H](CCCCN)C(=O)N[C@@H](CCCCN)C(=O)N[C@@H](CCC(N)=O)C(=O)N[C@@H](CCC(=O)O)C(=O)N[C@@H](CCC(=O)O)C(=O)N[C@@H](CCC(N)=O)C(=O)N[C@@H](CCC(N)=O)C(=O)N[C@@H](CCCCN)C(=O)N[C@@H](CCCCN)C(=O)N[C@@H](CC(N)=O)C(=O)N[C@@H](CCC(=O)O)C(=O)N[C@@H](CCC(=O)O)C(=O)N[C@@H](CCC(=O)O)C(=O)N[C@@H](CC(C)C)C(=O)N[C@@H](CCCCN)C(=O)N[C@@H](CCCCN)C(=O)N[C@@H](CC(C)C)C(=O)N[C@@H](CCC(=O)O)C(=O)N[C@@H](CCC(=O)O)C(=O)N[C@@H](Cc1c[nH]c2ccccc12)C(=O)N[C@@H](C)C(=O)N[C@@H](CCCCN)C(=O)N[C@@H](CCCCN)C(=O)N[C@@H](Cc1c[nH]c2ccccc12)C(=O)N[C@@H](CC(N)=O)C(=O)N[C@@H](Cc1c[nH]c2ccccc12)C(=O)N[C@@H](Cc1ccccc1)C(N)=O (Ac-YTSLIEELIKKQEEQQKKNEEELKKLEEWAKKWNWF-NH2)
Activity [1]: 2.2%
EC50 [2]: 7.9 nM
Tm [3]: 60 °C

CC[C@H](C)[C@H](NC(=O)[C@H](CC(C)C)NC(=O)[C@H](CCC(=O)O)NC(=O)[C@H](CCC(=O)O)NC(=O)[C@@H](NC(=O)[C@H](CC(C)C)NC(=O)[C@H](CO)NC(=O)[C@@H](NC(=O)[C@H](Cc1ccc(O)cc1)NC(C)=O)[C@@H](C)O)[C@@H](C)CC)C(=O)N[C@@H](CCCCN)C(=O)N[C@@H](CCCCN)C(=O)N[C@@H](CCC(=O)O)C(=O)N[C@@H](CCC(=O)O)C(=O)N[C@@H](CCC(=O)O)C(=O)N[C@@H](CCC(N)=O)C(=O)N[C@@H](CCC(N)=O)C(=O)N[C@@H](CCCCN)C(=O)N[C@@H](CCCCN)C(=O)N[C@@H](CC(N)=O)C(=O)N[C@@H](CCC(=O)O)C(=O)N[C@@H](CCC(=O)O)C(=O)N[C@@H](CCC(=O)O)C(=O)N[C@@H](CC(C)C)C(=O)N[C@@H](CCCCN)C(=O)N[C@@H](CCCCN)C(=O)N[C@@H](CC(C)C)C(=O)N[C@@H](CCC(=O)O)C(=O)N[C@@H](CCC(=O)O)C(=O)N[C@@H](Cc1c[nH]c2ccccc12)C(=O)N[C@@H](C)C(=O)N[C@@H](CCCCN)C(=O)N[C@@H](CCCCN)C(=O)N[C@@H](Cc1c[nH]c2ccccc12)C(=O)N[C@@H](CC(N)=O)C(=O)N[C@@H](Cc1c[nH]c2ccccc12)C(=O)N[C@@H](Cc1ccccc1)C(N)=O (Ac-YTSLIEELIKKEEEQQKKNEEELKKLEEWAKKWNWF-NH2)
Activity [1]: 2.2%
EC50 [2]: 230 nM
Tm [3]: 61 °C
